In patent EP0816361A2, “Preparation of substituted alkenoic acids” (ELI LILLY AND COMPANY, priority 1996, dated 1998):

Test system: TXA2 agonist activity
Assay: Absence of Agonist Activity (pressor response in pithed rats)
Format: in vivo

SMILES	mean arterial pressure (one minute after dosing at 0.1 mg/kg i.v.)	pressor response (i.v. administration, doses up to 10 mg/kg)
O=C(O)CCC/C=C\C[C@H]1[C@@H]2CC[C@@H](C2)[C@@H]1NS(=O)(=O)c1ccccc1 [Example S-145]	transient, but significant, increase	–
O=C(O)CCCC/C=C(\c1ccc(-c2nc(C(=O)NCCCCC3CCCCC3)co2)cc1)c1cccnc1 [Example 2, (E)-7-[4-[4-[[(4-Cyclohexylbutyl)amino]carbonyl]-2-oxazolyl]phenyl]-7-(3-pyridyl)hept-6-enoic Acid]	–	absence of a pressor response
